{"source": "patent US5677322A", "about": "“Maillard reaction inhibitor” (Otsuka Pharmaceutical Co., Ltd., priority 1993, dated 1997)", "data": [{"system": "Lysozyme", "assay": "Inhibition of Maillard reaction: suppression of lysozyme dimer formation (lysozyme + fructose, SDS-PAGE)", "assay_type": "biochemical", "conditions": "inhibition ratio of test compound to aminoguanidine (positive control); lysozyme 10 mg/ml, fructose 100 mM, 0.2M sodium phosphate pH 7.4, 37° C., 3 days; dimer amount by SDS-PAGE", "protocol": "Lysozyme and fructose were dissolved in a buffer solution of 0.2M sodium phosphate (pH 7.4) to respectively give concentrations of 10 mg/ml and 100 mM. After incubating at 37° C. for 3 days, a definite amount of the mixture was taken out and electrophoresed with the use of SDS-PAGE. After the completion of the electrophoresis, the gel was stained with 0.2% Coomassie Brilliant Blue R-250 and the amount of the dimer thus formed was determined.\nEach of the test compounds was added before the initiation of the incubation and the effect of suppressing the formation of the dimer was examined at various concentrations, whereby the IC50 value was obtained. As a positive control, aminoguanidine, which is a known glycation inhibitor, was employed and the inhibition ratio of the test compound to aminoguanidine (IC50 of aminoguanidine/IC50 of test compound) was calculated.", "values": [{"smiles": "CC(C)=NN=C1NC(=O)C(CC(=O)Nc2ccccc2)S1", "note": "(stereo not shown) [Test compound 32, 2-isopropylidenehydrazono-5-(N-phenylcarbamoylmethyl)thiazolidin-4-one]", "IC50 of aminoguanidine/IC50 of test compound": 55}, {"smiles": "CC(C)=NN=C1NC(=O)C(Cc2ccc([N+](=O)[O-])cc2)N1", "note": "(stereo not shown) [Test compound 33, 2-Isopropylidenehydrazono-5-(4-nitrobenzyl)imidazolidin-4-one]", "IC50 of aminoguanidine/IC50 of test compound": 2.4}, {"smiles": "CC(C)=NN=C1NC(=O)C(Cc2ccc(OCC3CCCCC3)cc2)N1", "note": "(stereo not shown) [Test compound 35, 5-[4-(Cyclohexylmethyloxy)benzyl]-2-isopropylidenehydrazonoimidazolidin-4-one]", "IC50 of aminoguanidine/IC50 of test compound": 0.8}, {"smiles": "CC(C)=NN=C1NC(=O)C(Cc2ccc(OCc3cccs3)cc2)N1", "note": "(stereo not shown) [Test compound 36, 2-Isopropylidenehydrazono-5-[4-(2-thienylmethoxy)benzyl]imidazolidin-4-one]", "IC50 of aminoguanidine/IC50 of test compound": 3.5}, {"smiles": "CC(C)=NN=C1NC(=O)C(Cc2c[nH]c3ccccc23)N1", "note": "(stereo not shown) [Test compound 40, 5-(3-Indolylmethyl)-2-isopropylidenehydrazonoimidazolidin-4-one]", "IC50 of aminoguanidine/IC50 of test compound": 2.6}, {"smiles": "CC(C)=NN=C1NC(=O)C(Cc2c[nH]c3ccc(O)cc23)N1", "note": "(stereo not shown) [Test compound 41, 5-(5-Hydroxy-3-indolylmethyl)-2-isopropylidenehydrazonoimidazolidin-4-one]", "IC50 of aminoguanidine/IC50 of test compound": 4.5}, {"smiles": "CC(C)=NN=C1NC(=O)C(Cc2ccc(O)c(O)c2)N1", "note": "(stereo not shown) [Test compound 42, 5-(3,4-Dihydroxybenzyl)-2-isopropylidenehydrazonoimidazolidin-4-one]", "IC50 of aminoguanidine/IC50 of test compound": 78.9}, {"smiles": "COC(=O)CC1NC(=NN=C(C)C)NC1=O", "note": "(stereo not shown) [Test compound 43, 2-Isopropylidenehydrazono-5-methoxycarbonylmethylimidazolidin-4-one]", "IC50 of aminoguanidine/IC50 of test compound": 5.4}, {"smiles": "CC(C)=NN=C1NC(=O)C(CC(=O)OCc2ccccc2)N1", "note": "(stereo not shown) [Test compound 44, 5-Benzyloxycarbonylmethyl-2-isopropylidenehydrazonoimidazolidin-4-one]", "IC50 of aminoguanidine/IC50 of test compound": 5.2}, {"smiles": "CC(C)=NN=C1NC(=O)C(CC(=O)O)N1", "note": "(stereo not shown) [Test compound 45, 5-Carboxymethyl-2-isopropylidenehydrazonoimidazolidin-4-one]", "IC50 of aminoguanidine/IC50 of test compound": 4.8}, {"smiles": "CC(C)=NN=C1NC(=O)C(CC(=O)Nc2ccccc2)N1", "note": "(stereo not shown) [Test compound 46, 2-Isopropylidenehydrazono-5-(N-phenylcarbamoylmethyl)imidazolidin-4-one]", "IC50 of aminoguanidine/IC50 of test compound": 5.7}, {"smiles": "CC(C)=NN=C1NC(=O)C(Cc2ccc(OCc3cccnc3)cc2)S1", "note": "(stereo not shown) [Test compound 48, 2-Isopropylidenehydrazono-5-[4-(3-pyridylmethoxy)benzyl]thiazolidin-4-one]", "IC50 of aminoguanidine/IC50 of test compound": 11.0}, {"smiles": "CC(C)=NN=C1NC(=O)C(CC(=O)Nc2ccc(F)c(F)c2)S1", "note": "(stereo not shown) [Test compound 49, 5-[N-(3,4-difluorophenyl)carbamoylmethyl]-2-isopropylidenehydrazonothiazolidin-4-one]", "IC50 of aminoguanidine/IC50 of test compound": 7.4}, {"smiles": "CC(C)=NN=C1NC(=O)C(CC(=O)Nc2ccc(OCc3ccccc3)cc2)S1", "note": "(stereo not shown) [Test compound 50, 5-[N-(4-benzyloxyphenyl)carbamoylmethyl]-2-isopropylidenehydrazonothiazolidin-4-one]", "IC50 of aminoguanidine/IC50 of test compound": 0.3}, {"smiles": "CCOC(=O)CN1C(=O)C(CC(=O)Nc2ccccc2)SC1=NN=C(C)C", "note": "(stereo not shown) [Test compound 61, 3-Ethoxycarbonylmethyl-5-(N-phenylcarbamoylmethyl)-2-isopropylidenehydrazonothiazolin-4-one]", "IC50 of aminoguanidine/IC50 of test compound": 0.91}, {"smiles": "CC(C)=NN=C1NC(=O)C(CCCCNC(=O)OCc2ccccc2)N1", "note": "(stereo not shown) [Test compound 62, 5-(4-Benzyloxycarbonylaminobutyl)-2-isopropylidenehydrazonoimidazolidin-4-one]", "IC50 of aminoguanidine/IC50 of test compound": 57}, {"smiles": "CC(C)=NN=C1NC(=O)C(CC(=O)N(C)c2ccccc2)S1", "note": "(stereo not shown) [Test compound 65, 2-Isopropylidenehydrazono-5-(N-methyl-N-phenylcarbamoylmethyl)thiazolidin-4-one]", "IC50 of aminoguanidine/IC50 of test compound": 6.8}, {"smiles": "CC(C)=NN=C1NC(=O)C(CC(=O)NCc2cccnc2)S1", "note": "(stereo not shown) [Test compound 66, 2-Isopropylidenehydrazono-5-[N-(3-pyridylmethyl)carbamoylmethyl]thiazolidin-4-one]", "IC50 of aminoguanidine/IC50 of test compound": 4.6}, {"smiles": "CC(C)=NN=C1NC(=O)C(CC(C)C)N1", "note": "(stereo not shown) [Test compound 67, 2-Isopropylidenehydrazono-5-(2-methylpropyl)imidazolidin-4-one]", "IC50 of aminoguanidine/IC50 of test compound": 2.6}, {"smiles": "CC(C)=NN=C1NC(=O)C(CC(=O)NCc2cccs2)S1", "note": "(stereo not shown) [Test compound 70, 2-isopropylidenehydrazono-5-[N-(2-thienylmethyl)carbamoylmethyl]thiazolidin-4-one]", "IC50 of aminoguanidine/IC50 of test compound": 36}, {"smiles": "CC(C)=NN=C1NC(=O)C(CC(=O)NC(C)c2ccccc2)S1", "note": "(stereo not shown) [Test compound 72, 2-Isopropylidenehydrazono-5-[N-(1-phenylethyl)carbamoylmethyl]thiazolidin-4-one]", "IC50 of aminoguanidine/IC50 of test compound": 7.0}, {"smiles": "CC(C)=NN=C1NC(=O)C(CC(=O)NC(C)c2ccccc2)N1", "note": "(stereo not shown) [Test compound 73, 2-Isopropylidenehydrazono-5-[N-(1-phenylethyl)carbamoylmethyl]imidazolidin-4-one]", "IC50 of aminoguanidine/IC50 of test compound": 1.3}, {"smiles": "O=C1NC(=NNS(=O)(=O)c2ccc(Br)cc2)NC1Cc1ccc(OCc2ccccc2)cc1", "note": "(stereo not shown) [Test compound 75]", "IC50 of aminoguanidine/IC50 of test compound": 1.5}, {"smiles": "O=C1NC(=NN=C2CCCC2)NC1Cc1ccc(OCc2ccccc2)cc1", "note": "(stereo not shown) [Test compound 77, 2-Cyclopentylidenehydrazono-5-(4-benzyloxybenzyl)imidazolidin-4-one]", "IC50 of aminoguanidine/IC50 of test compound": 2.2}, {"smiles": "CC(C)=NN=C1NC(=O)C(Cc2c[nH]cn2)N1", "note": "(stereo not shown) [Test compound 78, 5-(4-Imidazolylmethyl)-2-isopropylidenehydrazonoimidazolidin-4-one]", "IC50 of aminoguanidine/IC50 of test compound": 4.0}, {"smiles": "CC(C)=NN=C1NC(=O)C(CCC(=O)Nc2ccccc2)N1", "note": "(stereo not shown) [Test compound 80, 2-Isopropylidenehydrazono-5-[2-(N-phenylcarbamoyl)ethyl]imidazolidin-4-one]", "IC50 of aminoguanidine/IC50 of test compound": 3.1}, {"smiles": "NN=C1NC(=O)C(CC(=O)Nc2ccccc2)S1", "note": "(stereo not shown) [Test compound 81, 2-Hydrazono-5-(N-phenylcarbamoylmethyl)thiazolidin-4-one]", "IC50 of aminoguanidine/IC50 of test compound": 0.8}, {"smiles": "COc1ccc(NC(=O)CC2SC(=NN=C(C)C)NC2=O)cc1OC", "note": "(stereo not shown) [Test compound 90, 5-[N-(3,4-dimethoxyphenyl)carbamoylmethyl]-2-isopropylidenehydrazonothiazolidin-4-one]", "IC50 of aminoguanidine/IC50 of test compound": 42}, {"smiles": "COC(=O)c1ccccc1NC(=O)CC1SC(=NN=C(C)C)NC1=O", "note": "(stereo not shown) [Test compound 93, 2-Isopropylidenehydrazono-5-[N-(2-methoxycarbonylphenyl)carbamoylmethyl]thiazolidin-4-one]", "IC50 of aminoguanidine/IC50 of test compound": 26}, {"smiles": "COc1ccc(NC(=O)Cc2csc(NN=C(C)C)n2)cc1OC", "note": "[Test compound 94, 4-[N-(3,4-dimethoxyphenyl)carbamoylmethyl]-2-isopropylidenehydrazinothiazole]", "IC50 of aminoguanidine/IC50 of test compound": 33.7}, {"smiles": "CC(C)=NN=C1NC(=O)C(CC(=O)N[C@@H](Cc2c[nH]c3ccccc23)C(=O)O)S1", "note": "(stereo partly shown) [Test compound 104, 5-{N-[1-carboxy-2-(3-indolyl)ethyl]carbamoylmethyl}-2-isopropylidenehydrazonothiazolidin-4-one]", "IC50 of aminoguanidine/IC50 of test compound": 0.7}, {"smiles": "CC(C)=NN=C1NC(=O)C(CC(=O)Nc2c(C)cccc2C)S1", "note": "(stereo not shown) [Test compound 112, 5-[N-(2,6-dimethylphenyl)carbamoylmethyl]-2-isopropylidenehydrazonothiazolidin-4-one]", "IC50 of aminoguanidine/IC50 of test compound": 6.4}, {"smiles": "COc1cc(NC(=O)CC2SC(=NN=C(C)C)NC2=O)c(C(=O)O)cc1OC", "note": "(stereo not shown) [Test compound 114, 5-[N-(2-carboxy-4,5-dimethoxyphenyl)carbamoylmethyl]-2-isopropylidenehydrazonothiazolidin-4-one]", "IC50 of aminoguanidine/IC50 of test compound": 5.4}, {"smiles": "COc1ccc(NC(=O)CC2SC(=NN=C(C)C)NC2=O)c(C)c1", "note": "(stereo not shown) [Test compound 116, 2-Isopropylidenehydrazono-5-[N-(4-methoxy-2-methylphenyl)carbamoylmethyl]thiazolidin-4-one]", "IC50 of aminoguanidine/IC50 of test compound": 7.3}, {"smiles": "CC(C)=NN=C1NC(=O)C(CC(=O)Nc2ccc(F)cc2C(=O)O)S1", "note": "(stereo not shown) [Test compound 117, 5-[N-(2-carboxy-4-fluorophenyl)carbamoylmethyl]-2-isopropylidenehydrazonothiazolidin-4-one]", "IC50 of aminoguanidine/IC50 of test compound": 7.0}, {"smiles": "COC(=O)c1c(F)cccc1NC(=O)CC1SC(=NN=C(C)C)NC1=O", "note": "(stereo not shown) [Test compound 118, 5-[N-(3-fluoro-2-methoxycarbonylphenyl)carbamoylmethyl]-2-isopropylidenehydrazonothiazolidin-4-one]", "IC50 of aminoguanidine/IC50 of test compound": 6.1}, {"smiles": "CC(C)=NN=C1NC(=O)C(C(C)C)N1", "note": "(stereo not shown) [compound 79]", "IC50 of aminoguanidine/IC50 of test compound": 1.5}]}]}
